Where a name gives a salt, the structure may show the parent alone.
Each compound was assayed against T1, human STING (hSTING) (Homo sapiens, UniProt Q86WV6) (assay: Inhibition test of intracellular human STING (hSTING) pathway using SEAP reporter cells (HEK-Blue ISG), stimulation with Compound 3). Details: Compound 3 10 nM stimulation, 21 hours.
T1 construct: host or cells: HEK-Blue ISG cells (HEK293-derived SEAP reporter line)
Format: cell-based
Parameters: hSTING inhibitory activity: scale not given here
Experimental: Inhibition test of intracellular human STING (hSTING) pathway using reporter cells
Since STING activates the transcription factor IRF3 upon ligand stimulation, the activity of STING can be evaluated by a reporter assay using a secretory alkaline phosphatase (SEAP reporter) integrated downstream of an IRF-inducible promoter.
That is, the hSTING inhibitory activity of the test compound was evaluated using HEK-Blue™MISG cells (manufactured by Invivogen, #hkb-isg-1) incorporating a SEAP reporter. Activation of hSTING was performed by stimulation with the small molecule ligand Compound 3 as described in the literature (Ramanjulu, J. M., et al., Nature. 2018, 564 (7736), 439-443). HEK-Blue™MISG cells were seeded in a 96-well plate and cultured overnight at 37° C. in a 5% CO2 incubator. To each well of this cell culture plate, a test compound solution adjusted to a final concentration of 0.1 to 10 µM of the test compound was added, cultured for 1 hour in a CO2 incubator, and then Compound 3 (final concentration 10 nM) was added and further cultured in a CO2 incubator for 21 hours. After collecting the culture supernatant of each well, the reporter activity was measured by color development reaction with alkaline phosphatase.
The reporter activity of the test compound non-addition and Compound 3 addition group was set to 100%, and the reporter activity of the test compound non-addition and Compound 3 non-addition group was set to 0%. The IC50 value was determined by regression analysis of the inhibitory rate determined from the reporter activity at each compound concentration and the test compound concentration (logarithm).

T1 sequence (Q86WV6 whole entry H232R): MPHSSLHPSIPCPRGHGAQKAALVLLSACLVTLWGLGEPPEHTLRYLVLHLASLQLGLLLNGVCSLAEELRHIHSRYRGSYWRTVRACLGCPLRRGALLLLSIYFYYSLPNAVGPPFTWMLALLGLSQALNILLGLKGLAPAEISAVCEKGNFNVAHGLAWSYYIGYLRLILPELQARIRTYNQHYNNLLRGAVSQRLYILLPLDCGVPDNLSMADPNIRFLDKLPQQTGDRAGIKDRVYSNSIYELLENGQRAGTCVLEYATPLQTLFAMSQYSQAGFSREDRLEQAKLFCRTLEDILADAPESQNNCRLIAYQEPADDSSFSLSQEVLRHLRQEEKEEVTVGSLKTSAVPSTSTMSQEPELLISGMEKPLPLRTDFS

hSTING inhibitory activity | Structure (SMILES)
* * | CN(C)c1cccc(Oc2ccc3[nH]c(Nc4c[nH]c5ccc(Br)nc45)nc3c2)c1 [Embodiment 65, N-(5-bromo-1H-pyrrolo[3,2-b]pyridin-3-yl)-5-[3-(dimethylamino)phenoxy]-1H-benzo[d]imidazol-2-amine]
* * | CS(=O)(=O)c1cccc(Oc2ccc3[nH]c(Nc4c[nH]c5ccc(Br)nc45)nc3c2)c1 [Embodiment 67, N-(5-bromo-1H-pyrrolo[3,2-b]pyridin-3-yl)-5-[3-(methylsulfonyl)phenoxy]-1H-benzo[d]imidazol-2-amine]
* * | Brc1ccc2[nH]cc(Nc3nc4cc(OCc5ccccc5)ccc4[nH]3)c2n1 [Embodiment 69, 5-(benzyloxy)-N-(5-bromo-1H-pyrrolo[3,2-b]pyridin-3-yl)-1H-benzo[d]imidazol-2-amine]

More lines, now with the values behind:

Structure (SMILES) | hSTING inhibitory activity
Cn1cc(-c2ccnc3c(Nc4nc5cc(Oc6ccccc6)ccc5[nH]4)c[nH]c23)cn1 [Embodiment 71, N-[7-(1-methyl-1H-pyrazol-4-yl)-1H-pyrrolo[3,2-b]pyridin-3-yl]-5-phenoxy-1H-benzo[d]imidazole-2-amine formate] | * *
CN(c1ccccc1)S(=O)(=O)c1ccc2[nH]c(Nc3c[nH]c4ccc(Cl)nc34)nc2c1 [Embodiment 75, 2-[(5-Chloro-1H-pyrrolo[3,2-b]pyridin-3-yl)amino]-N-methyl-N-phenyl-1H-benzo[d]imidazole-5-sulfonamide] | * *
Cc1ccc2[nH]c(Nc3c[nH]c4ccc(Cl)nc34)nc2c1C [Embodiment 85, N-(5-Chloro-1H-pyrrolo[3,2-b]pyridin-3-yl)-4,5-dimethyl-1H-benzo[d]imidazol-2-amine] | * *

Same assay, conditions: Compound 3 10 nM stimulation, 21 hours, read-out: hSTING inhibitory activity

IC50 | Structure (SMILES)
1 to 10 µM | CS(=O)(=O)c1ccc(Oc2ccc3[nH]c(Nc4c[nH]c5ccc(Br)nc45)nc3c2)cc1 [Embodiment 66, N-(5-bromo-1H-pyrrolo[3,2-b]pyridin-3-yl)-5-[4-(methylsulfonyl)phenoxy]-1H-benzo[d]imidazol-2-amine]
≥ 10 µM | CN(C)Cc1ccccc1Oc1ccc2[nH]c(Nc3c[nH]c4ccc(Cl)nc34)nc2c1 [Embodiment 83, N-(5-chloro-1H-pyrrolo[3,2-b]pyridin-3-yl)-5-{2-[(dimethylamino)methyl]phenoxy}-1H-benzo [d]imidazole-2-amine formate]

Continued, compound first:

Structure (SMILES) | IC50
CS(=O)(=O)c1ccccc1Oc1ccc2[nH]c(Nc3c[nH]c4ccc(Br)nc34)nc2c1 [Embodiment 68, N-(5-bromo-1H-pyrrolo[3,2-b]pyridin-3-yl)-5-[2-(methylsulfonyl)phenoxy]-1H-benzo[d]imidazol-2-amine] | ≥ 10 µM
CN(C)c1ccnc2c(Nc3nc4cc(Oc5ccccc5)ccc4[nH]3)c[nH]c12 [Embodiment 70, N7,N7-dimethyl-N3-(5-phenoxy-1H-benzo[d]imidazol-2-yl)-1H-pyrrolo[3,2-b]pyridine-3,7-diamine formate] | ≥ 10 µM
FC(F)(F)c1cnc2[nH]cc(Nc3nc4cc(Oc5ccccc5)ccc4[nH]3)c2c1 [Embodiment 74, 5-phenoxy-N-[5-(trifluoromethyl)-1H-pyrrolo[2,3-b]pyridin-3-yl]-1H-benzo[d]imidazol-2-amine formate] | 1 to 10 µM
Oc1ccnc2c(Nc3nc4cc(Oc5ccccc5)ccc4[nH]3)c[nH]c12 [Embodiment 76, 3-[(5-phenoxy-1H-benzo[d]imidazol-2-yl)amino]-1H-pyrrolo [3,2-b]pyridin-7-ol formate] | ≥ 10 µM
CN(C)Cc1cccc(Oc2ccc3[nH]c(Nc4c[nH]c5ccc(Cl)nc45)nc3c2)c1 [Embodiment 81, N-(5-chloro-1H-pyrrolo[3,2-b]pyridin-3-yl)-5-{3-[(dimethylamino)methyl]phenoxy}-1H-benzo [d]imidazole-2-amine formate] | 1 to 10 µM
CCCCn1c(Nc2c[nH]c3ccc(Br)nc23)nc2cc(Oc3ccccc3)ccc21 [Embodiment 90, N-(5-bromo-1H-pyrrolo[3,2-b]pyridin-3-yl)-1-butyl-5-phenoxy-1H-benzo[d]imidazol-2-amine] | 1 to 10 µM
